Marks after values point to notes of the source that are not given here.
System: hES cells
Assay: Quantitative RT-PCR analysis of gene expression in hESC differentiation (culture with RA or DMSO)
Format: cell-based, human
Settings: for Fold Change, 130 kDa leucine-rich protein (LRP 130) mRNA / Fold Change, Bone marrow stromal antigen 2 (BST-2) mRNA / Fold Change, Bone morphogenetic protein receptor, type Ia (BMPR1A) (ALK-3) mRNA / Fold Change, EST (GA_28053, T24677) / Fold Change, Early development regulator 1 (polyhomeotic 1 homolog) (EDR1) mRNA / Fold Change, Ephrin type-a receptor 1 (EPHA1) mRNA / Fold Change, FLJ31267 (acetylglucosaminyltransferase-like protein) mRNA / Fold Change, Fibroblast growth factor receptor 3 precursor (FGFR-3) mRNA / Fold Change, Forkhead box h1 (FOXH1) mRNA / Fold Change, Forkhead box o1a (foxo1a) mRNA / Fold Change, Gamma-aminobutyric acid (GABA) A receptor, beta 3 mRNA / Fold Change, Gastrin-releasing peptide receptor (GRP-R) mRNA / Fold Change, Glypican-2 (cerebroglycan) mRNA / Fold Change, Hypothetical protein BC018070 mRNA / Fold Change, Hypothetical protein FLJ14549 mRNA / Fold Change, Kallmann syndrome 1 sequence (KAL1) mRNA / Fold Change, Krab-zinc finger protein SZF1-1 mRNA / Fold Change, Left-right determination, factor b (LEFTB) mRNA / Fold Change, Nell2 (NEL-like protein 2) mRNA / Fold Change, Notch 1 (N1) mRNA / Fold Change, Octamer-binding transcription factor 3a (OCT-3A) (OCT-4) mRNA / Fold Change, Podocalyxin-like (PODXL) mRNA / Fold Change, Potassium channel subfamily k member 5 (TASK-2) mRNA / Fold Change, Protein tyrosine phosphatase, receptor-type, z polypeptide 1 (PTPRZ1) mRNA / Fold Change, Roundabout, axon guidance receptor, homolog 1 (ROBO1) mRNA / Fold Change, Sal-like 1 (SALL1) mRNA / Fold Change, Secreted phosphoprotein 1 (osteopontin) mRNA / Fold Change, Solute carrier family 6, member 8 (SLC6A8) mRNA / Fold Change, Telomerase reverse transcriptase (TERT) mRNA / Fold Change, Teratocarcinoma-derived growth factor 1 (CRIPTO) mRNA / Fold Change, Thy-1 co-transcribed mRNA / Fold Change, Zic family member 3 (ZIC3) mRNA / Fold Change, Zinc finger protein of cerebellum ZIC2 mRNA / Fold Change, Zinc finger protein, HSAL2 mRNA / Fold Change, Pr domain containing 14 (PRDM14) mRNA: hES cells cultured 1 week with 500 nM RA or 0.5% DMSO; for Fold Change, Pr domain containing 14 (PRDM14) mRNA: normalised to 18S rRNA, 2^-ddCT
Description: To verify the expression patterns of particular genes of interest at the mRNA level, extracts of undifferentiated hES cells and their differentiated progeny were assayed by real-time PCR. Cells were cultured for 1 week with 0.5% dimethyl sulfoxide (DMSO) or 500 nM retinoic acid (RA). The samples were amplified using sequence-specific primers, and the rate of amplification was correlated with the expression level of each gene in the cell population.
Taqman™ RT-PCR was performed under the following conditions: 1×RT Master Mix (ABI), 300 nM for each primer, and 80 nM of probe, and 10 pg to 100 ng of total RNA in nuclease-free water. The reaction was conducted under default RT-PCR conditions of 48° C. hold for 30 min, 95° C. hold for 10 min, and 40 cycles of 95° C. at 15 sec and 60° C. hold for 1 min. RNA was isolated by a guanidinium isothiocyanate method (RNAeasy™ kit, Qiagen) according to manufacturer's instructions, and subsequently DNAse treated (DNAfree™ kit, Ambion). Gene-specific primers and probes were designed by PrimerExpress™ software (Ver. 1.5, ABI). Probe oligonucleotides were synthesized with the fluorescent indicators 6-carboxyfluorescein (FAM) and 6-carboxy-tetramethylrhodamine (TAMRA) at the 5′ and 3′ ends, respectively. Relative quantitation of gene expression between multiple samples was achieved by normalization against endogenous 18S ribosomal RNA (primer and probe from ABI) using the ΔΔCT method of quantitation (ABI). Fold change in expression level was calculated as 2^−ΔΔCT.
Since the cells have been cultured in RA and DMSO for a short period, they are at the early stages of differentiation, and the difference in expression level is less dramatic than it would be after further differentiation. Of particular interest for following or modulating the differentiation process are markers that show modified expression within the first week of differentiation by more than 2-fold (*), 5-fold (**), 10-fold (***), or 100-fold (****).
KALL and EPHAL were not tested.

[1] = H9 hES cells after culturing for 7 days with RA or DM (FIG. 1)

Structure (SMILES) | Fold Change, 130 kDa leucine-rich protein (LRP 130) mRNA | Fold Change, Bone marrow stromal antigen 2 (BST-2) mRNA | Fold Change, Bone morphogenetic protein receptor, type Ia (BMPR1A) (ALK-3) mRNA | Fold Change, EST (GA_28053, T24677) | Fold Change, Early development regulator 1 (polyhomeotic 1 homolog) (EDR1) mRNA | Fold Change, Ephrin type-a receptor 1 (EPHA1) mRNA | Fold Change, FLJ31267 (acetylglucosaminyltransferase-like protein) mRNA | Fold Change, Fibroblast growth factor receptor 3 precursor (FGFR-3) mRNA | Fold Change, Forkhead box h1 (FOXH1) mRNA | Fold Change, Forkhead box o1a (foxo1a) mRNA | Fold Change, Gamma-aminobutyric acid (GABA) A receptor, beta 3 mRNA | Fold Change, Gastrin-releasing peptide receptor (GRP-R) mRNA | Fold Change, Glypican-2 (cerebroglycan) mRNA | Fold Change, Hypothetical protein BC018070 mRNA | Fold Change, Hypothetical protein FLJ14549 mRNA | Fold Change, Kallmann syndrome 1 sequence (KAL1) mRNA | Fold Change, Krab-zinc finger protein SZF1-1 mRNA | Fold Change, Left-right determination, factor b (LEFTB) mRNA | Fold Change, Nell2 (NEL-like protein 2) mRNA | Fold Change, Notch 1 (N1) mRNA | further results
C[S+](C)[O-] [DMSO, dimethyl sulfoxide] | −1.9 fold | −1.9 fold | −2.4 fold | <−100* fold | −5.6 fold | −1.9 fold | −4.5 fold | 2.3 fold | −5.6 fold | −2.9 fold | −5.6 fold | −9.1 fold | −1.2 fold | −10.0 fold | −10.0 fold | −2.5 fold | −3.1 fold | −25.0 fold | −1.3 fold | 1.0 fold | Gene expression of ICAM in differentiated cells [1]: below the limit of detection; Gene expression of rhodopsin in differentiated cells [1]: below the limit of detection; Fold Change, Octamer-binding transcription factor 3a (OCT-3A) (OCT-4) mRNA: −7.7 fold; Fold Change, Podocalyxin-like (PODXL) mRNA: −4.3 fold; Fold Change, Potassium channel subfamily k member 5 (TASK-2) mRNA: 1.0 fold; Fold Change, Protein tyrosine phosphatase, receptor-type, z polypeptide 1 (PTPRZ1) mRNA: −3.3 fold; Fold Change, Roundabout, axon guidance receptor, homolog 1 (ROBO1) mRNA: 1.0 fold; Fold Change, Sal-like 1 (SALL1) mRNA: −1.3 fold; Fold Change, Secreted phosphoprotein 1 (osteopontin) mRNA: −10.0 fold; Fold Change, Solute carrier family 6, member 8 (SLC6A8) mRNA: −1.1 fold; Fold Change, Telomerase reverse transcriptase (TERT) mRNA: −2.3 fold; Fold Change, Teratocarcinoma-derived growth factor 1 (CRIPTO) mRNA: −12.5 fold; Fold Change, Thy-1 co-transcribed mRNA: −11.1 fold; Fold Change, Zic family member 3 (ZIC3) mRNA: −5.3 fold; Fold Change, Zinc finger protein of cerebellum ZIC2 mRNA: −2.9 fold; Fold Change, Zinc finger protein, HSAL2 mRNA: −2.8 fold; Fold Change, Pr domain containing 14 (PRDM14) mRNA: −8.3 fold
CC1=C(/C=C/C(C)=C/C=C/C(C)=C/C(=O)O)C(C)(C)CCC1 [RA, retinoic acid] | −1.9 fold | 1.1 fold | −2.4 fold | <−100* fold | −1.8 fold | −1.3 fold | −2.3 fold | 1.5 fold | −1.8 fold | −1.6 fold | −2.8 fold | −6.3 fold | −1.5 fold | −3.2 fold | −2.3 fold | −1.1 fold | −1.8 fold | −16.7 fold | −1.3 fold | 1.3 fold | Fold Change, Octamer-binding transcription factor 3a (OCT-3A) (OCT-4) mRNA: −3.7 fold; Fold Change, Podocalyxin-like (PODXL) mRNA: −2.6 fold; Fold Change, Potassium channel subfamily k member 5 (TASK-2) mRNA: −1.6 fold; Fold Change, Protein tyrosine phosphatase, receptor-type, z polypeptide 1 (PTPRZ1) mRNA: −1.7 fold; Fold Change, Roundabout, axon guidance receptor, homolog 1 (ROBO1) mRNA: 1.1 fold; Fold Change, Sal-like 1 (SALL1) mRNA: 1.4 fold; Fold Change, Secreted phosphoprotein 1 (osteopontin) mRNA: −3.8 fold; Fold Change, Solute carrier family 6, member 8 (SLC6A8) mRNA: −1.1 fold; Fold Change, Telomerase reverse transcriptase (TERT) mRNA: −2.1 fold; Fold Change, Teratocarcinoma-derived growth factor 1 (CRIPTO) mRNA: −4.0 fold; Fold Change, Thy-1 co-transcribed mRNA: −12.5 fold; Fold Change, Zic family member 3 (ZIC3) mRNA: −1.7 fold; Fold Change, Zinc finger protein of cerebellum ZIC2 mRNA: 1.0 fold; Fold Change, Zinc finger protein, HSAL2 mRNA: −1.4 fold; Fold Change, Pr domain containing 14 (PRDM14) mRNA: −1.9 fold

— US7153650B2, “Marker system for preparing and characterizing high-quality human embryonic stem cells” (Geron Corporation, priority 2003, dated 2006)
